According to the NIST ThermoML archive (doi:10.1021/je700096m):

Assay: xn = mol fraction of the nth substance listed
Details: 298.15 K, Liquid

CCCCCl [1-chlorobutane] + CN(C)C=O
mass density [kg/m3]
Details	x2 = 0.0998	x2 = 0.1981	x2 = 0.2988	x2 = 0.4019	x2 = 0.501	x2 = 0.6087	x2 = 0.7008	x2 = 0.8163	x2 = 0.9007
100 kPa	885.5	890.7	896.3	902.3	908.6	915.5	921.8	930.2	936.6
2000 kPa	887.4	892.5	898	903.9	910.1	917	923.1	931.5	937.8
4000 kPa	889.3	894.4	899.8	905.7	911.7	918.5	924.6	932.8	939.1
6000 kPa	891.2	896.3	901.6	907.3	913.3	920	926	934.2	940.3
7900 kPa	–	–	–	–	–	–	927.5	–	–
8000 kPa	893.1	898.1	903.3	908.9	914.9	921.5	–	935.4	941.5
10000 kPa	895.1	900	905.1	910.7	916.6	923	928.8	936.8	942.9
11900 kPa	–	–	–	–	918	–	–	–	–
12000 kPa	896.9	901.6	906.8	912.2	–	924.4	930.3	938.1	944.1
14000 kPa	898.6	903.4	908.4	913.8	919.5	925.9	931.7	939.3	945.3
16000 kPa	900.4	905.1	910.1	915.3	921	927.21	933	940.6	946.4
18000 kPa	902.1	906.8	911.7	916.7	922.4	–	934.3	941.8	947.5
18100 kPa	–	–	–	–	–	928.6	–	–	–
20000 kPa	903.8	908.7	913.1	918.3	924	930.2	935.6	943.3	949.1

CCCCCCCl [1-chlorohexane] + CN(C)C=O
mass density [kg/m3]
Details	x2 = 0.097	x2 = 0.2019	x2 = 0.2707	x2 = 0.4007	x2 = 0.5017	x2 = 0.6155	x2 = 0.6988	x2 = 0.7993	x2 = 0.9018
100 kPa	876.9	881.2	884.4	891.3	897.4	905.4	912.7	921.8	932.6
2000 kPa	878.5	882.8	885.9	892.8	898.8	906.9	914	923.1	933.8
4000 kPa	880.2	884.4	887.5	894.3	900.3	908.4	915.5	924.4	935.1
6000 kPa	881.8	886	889.1	895.8	901.8	909.8	916.8	925.7	936.4
8000 kPa	883.4	887.6	890.7	897.3	903.3	911.2	918.2	927	937.6
10000 kPa	885.1	889.3	892.3	898.8	904.8	912.7	919.6	928.4	938.9
11900 kPa	–	–	–	–	–	914	–	–	–
12000 kPa	886.7	890.8	893.8	900	906.3	–	920.9	929.7	940.1
13900 kPa	–	–	–	–	–	–	–	930.9	–
14000 kPa	888.2	892.3	895.2	901.8	907.6	915.4	922.3	–	941.3
16000 kPa	889.7	893.8	896.7	903.2	909.1	916.8	923	932.1	942.5
17900 kPa	–	–	–	–	–	–	–	933.3	–
18000 kPa	891.2	895.3	898.1	904.6	910.4	918.1	924.9	–	943.6
20000 kPa	892.8	896.6	899.6	906	911.8	919.5	926.2	934.6	944.9

CCCCCl [1-chlorobutane] + CC(=O)N(C)C
mass density [kg/m3]
Details	x2 = 0.0967	x2 = 0.2105	x2 = 0.2984	x2 = 0.4019	x2 = 0.499	x2 = 0.5947	x2 = 0.6992	x2 = 0.7997	x2 = 0.9015
100 kPa	885.6	891.8	896.7	902.5	908.1	913.3	919.2	924.7	930.4
2000 kPa	887.5	893.6	898.4	904.1	909.6	914.8	920.6	925.9	931.6
4000 kPa	889.5	895.5	900.1	905.8	911.2	916.2	922.1	927.3	932.9
6000 kPa	891.4	897.2	901.9	907.45	912.7	917.8	923.4	928.7	934.1
8000 kPa	893.3	899.1	903.6	909	914.2	919.2	924.8	930	935.5
10000 kPa	895.3	900.9	905.3	910.9	915.8	920.7	926.2	931.3	936.7
11900 kPa	–	–	–	912.3	–	–	–	–	–
12000 kPa	897.1	902.6	907	–	917.3	922.1	927.6	932.6	937.9
13900 kPa	–	–	–	913.9	–	–	–	–	–
14000 kPa	898.9	904.4	908.6	–	918.8	923.5	929	933.8	939
15900 kPa	–	–	–	–	–	–	–	935.1	–
16000 kPa	900.6	906.1	910.2	915.4	920.2	924.8	930.3	–	940.3
17900 kPa	902.3	907.6	–	–	–	–	–	936.2	–
18000 kPa	–	–	911.7	916.9	921.6	926.2	931.5	–	941.5
20000 kPa	904.2	909.3	–	–	–	–	932.9	937.7	942.6
20100 kPa	–	–	913.5	918.5	923.1	927.6	–	–	–
